Source: US9630922B2, “3-spiro-7-hydroxamic acid tetralins as HDAC inhibitors” (Forma Therapeutics, Inc., priority 2015, dated 2017)

Biological target: T1, HDAC6 (Homo sapiens, UniProt Q9UBN7)
T1 construct: Full length human recombinant HDAC6 protein was expressed in baculoviral system; made in house; host or cells: baculoviral system
T1 sequence (Q9UBN7 1-1215): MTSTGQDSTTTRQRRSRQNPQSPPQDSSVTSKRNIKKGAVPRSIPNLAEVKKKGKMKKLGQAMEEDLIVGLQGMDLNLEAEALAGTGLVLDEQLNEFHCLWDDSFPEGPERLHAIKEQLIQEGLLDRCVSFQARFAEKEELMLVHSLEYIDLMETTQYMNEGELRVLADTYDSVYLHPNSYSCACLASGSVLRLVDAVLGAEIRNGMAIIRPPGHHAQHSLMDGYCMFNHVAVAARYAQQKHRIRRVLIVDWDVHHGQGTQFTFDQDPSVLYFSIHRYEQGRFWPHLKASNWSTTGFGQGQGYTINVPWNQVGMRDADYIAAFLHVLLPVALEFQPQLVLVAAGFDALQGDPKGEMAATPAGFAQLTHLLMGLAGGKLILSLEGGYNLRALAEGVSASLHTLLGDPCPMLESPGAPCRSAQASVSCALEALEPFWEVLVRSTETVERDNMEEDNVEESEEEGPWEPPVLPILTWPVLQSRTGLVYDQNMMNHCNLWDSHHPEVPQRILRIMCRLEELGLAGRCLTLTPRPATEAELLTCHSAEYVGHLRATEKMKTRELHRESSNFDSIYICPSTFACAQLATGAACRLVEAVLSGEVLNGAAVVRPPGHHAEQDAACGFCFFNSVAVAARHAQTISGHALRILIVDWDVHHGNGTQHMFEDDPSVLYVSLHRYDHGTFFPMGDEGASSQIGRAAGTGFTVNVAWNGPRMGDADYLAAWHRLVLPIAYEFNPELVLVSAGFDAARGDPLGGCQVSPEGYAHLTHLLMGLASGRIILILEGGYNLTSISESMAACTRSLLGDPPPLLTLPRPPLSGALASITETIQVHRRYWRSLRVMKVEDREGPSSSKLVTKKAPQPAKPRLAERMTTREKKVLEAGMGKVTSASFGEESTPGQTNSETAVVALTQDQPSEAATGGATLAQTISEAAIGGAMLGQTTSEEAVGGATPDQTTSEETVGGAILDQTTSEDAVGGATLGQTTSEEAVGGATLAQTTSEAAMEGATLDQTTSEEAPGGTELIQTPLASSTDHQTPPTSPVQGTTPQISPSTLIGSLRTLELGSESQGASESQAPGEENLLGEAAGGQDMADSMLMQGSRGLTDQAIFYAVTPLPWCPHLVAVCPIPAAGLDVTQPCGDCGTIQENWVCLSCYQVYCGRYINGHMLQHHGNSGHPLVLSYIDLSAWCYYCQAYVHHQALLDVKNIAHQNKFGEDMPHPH
Experiment: In vitro Histone Deacetylase Assay (enzymatic HDAC6 electrophoretic mobility shift assay)
Format: biochemical
Conditions: full length human recombinant HDAC6, 1 nM enzyme, 2 μM peptide substrate RHKK(Ac)-NH2, 25° C.; read-out: HDAC6 activity range
Experimental: The enzymatic HDAC6 assay was performed using electrophoretic mobility shift assay. Full length human recombinant HDAC6 protein was expressed in baculoviral system and purified by affinity chromatography. The enzymatic reactions were assembled in 384 well plates in a total volume of 25 μL in a reaction buffer composing: 100 mM HEPES, pH7.5, 25 mM KCl, 0.1% bovine serum albumin, 0.01% Triton X-100, 1% DMSO (from compounds) 2 μM of the fluorescently labeled peptide substrate and enzyme. The enzyme was added at a final concentration of 1 nM. The peptide substrate RHKK(Ac)—NH2 was used. The compounds were tested at 12 concentrations spaced by 3× dilution intervals. Negative control samples (0%-inhibition in the absence of inhibitor) and positive control samples (100%-inhibition) were assembled in replicates of four in each assay plate. The reactions were incubated at 25° C. and quenched by the addition of 45 μL of termination buffer (100 mM HEPES, pH 7.5, 0.01% Triton X-100, 0.05% SDS).
The terminated assay plates were analyzed on LabChip® 3000 microfluidic electrophoresis instrument (Perkin Elmer/Caliper Life Sciences). The fluorescence intensity of the electrophoretically separated de-acetylated product and substrate peptide was measured. Activity in each sample was determined as the product to sum ratio (PSR): P/(S+P), where P is the peak height of the product peptide and S is the peak height of the substrate peptide. Percent inhibition (Pinh) is determined using the following equation:
Pinh=(PSR0%−PSRinh)/(PSR0%−PSR100%)*100, where PSRinh is the product sum ratio in the presence of inhibitor, PSR0% is the average product sum ration in the absence of inhibitor and PSR100% is the average product sum ratio in 100%-inhibition control samples. The IC50 values of inhibitors were determined by fitting the %-inhibition curves with 4 parameter dose-response model using XLfit 4 software.
As set forth in Table-31, below, IC50 values are defined as follows: IC50≦0.1 μM (+++); IC50>0.1 μM and ≦0.5 μM (++); IC50>0.5 μM (+).

With `O=C(NO)c1ccc2c(c1)CC[C@]1(CCN(Cc3cc(Cl)ccc3Cl)C1=O)C2` [Compound I-48, (R)-1′-(2,5-dichlorobenzyl)-N-hydroxy-2′-oxo-3,4-dihydro-1H-spiro[naphthalene-2,3′-pyrrolidine]-6-carboxamide] the IC50 was at most 100 nM.

In the case of `N#Cc1cccc(N2CC[C@]3(CCc4cc(C(=O)NO)ccc4C3)C2=O)c1` [Compound I-112, (R)-1′-(3-cyanophenyl)-N-hydroxy-2′-oxo-3,4-dihydro-1H-spiro[naphthalene-2,3′-pyrrolidine]-6-carboxamide], the IC50 is reported as at most 100 nM.

With `CCN1CC2(CCc3cc(C(=O)NO)ccc3C2)CC1=O` (single isomer, unassigned) [Compound I-211] the IC50 was at most 100 nM.

`O=C(NO)c1ccc2c(c1)CC[C@@]1(CCN(CC(F)(F)F)C1=O)C2` [Compound I-166, (S)-N-hydroxy-2′-oxo-1′-(2,2,2-trifluoroethyl)-3,4-dihydro-1H-spiro[naphthalene-2,3′-pyrrolidine]-6-carboxamide] was tested, and the IC50 was 100 to 500 nM.

`CC(C)(C)c1ccc(CN2CC[C@@]3(CCc4cc(C(=O)NO)ccc4C3)C2=O)cc1` [Compound I-85, (S)-1′-(4-(tert-butyl)benzyl)-N-hydroxy-2′-oxo-3,4-dihydro-1H-spiro[naphthalene-2,3′-pyrrolidine]-6-carboxamide] was tested, and the IC50 was 100 to 500 nM.

With `Cc1ccc(N2CC[C@]3(CCc4cc(C(=O)NO)ccc4C3)C2=O)cn1` [Compound I-133, (R)-N-hydroxy-1′-(6-methylpyridin-3-yl)-2′-oxo-3,4-dihydro-1H-spiro[naphthalene-2,3′-pyrrolidine]-6-carboxamide] the IC50 was at most 100 nM.

`O=C(NO)c1ccc2c(c1)CC[C@]1(CCCN(C3CCC3)C1=O)C2` (single isomer, unassigned) [Compound I-198] showed an IC50 of at most 100 nM.

`O=C(NO)c1ccc2c(c1)CC[C@@]1(CCN(Cc3ccccc3)C1=O)C2` [Compound I-76, (S)-1′-benzyl-N-hydroxy-2′-oxo-3,4-dihydro-1H-spiro[naphthalene-2,3′-pyrrolidine]-6-carboxamide] showed an IC50 of at most 100 nM.

`O=C(NO)c1ccc2c(c1)CC[C@@]1(CCN(Cc3ccccc3OC(F)F)C1=O)C2` [Compound I-87, (S)-1′-(2-(difluoromethoxy)benzyl)-N-hydroxy-2′-oxo-3,4-dihydro-1H-spiro[naphthalene-2,3′-pyrrolidine]-6-carboxamide] gave an IC50 of at most 100 nM.

For `O=C(NO)c1ccc2c(c1)CC[C@]1(CCN(c3ccc4nccn4c3)C1=O)C2` [Compound I-99, (R)-N-hydroxy-1′-(imidazo[1,2-a]pyridin-6-yl)-2′-oxo-3,4-dihydro-1H-spiro[naphthalene-2,3′-pyrrolidine]-6-carboxamide], the IC50 was at most 100 nM.

Compound `O=C(NO)c1ccc2c(c1)CC[C@@]1(CCN(Cc3ccc4ccccc4c3)C1=O)C2` [Compound I-86, (S)-N-hydroxy-1′-(naphthalen-2-ylmethyl)-2′-oxo-3,4-dihydro-1H-spiro[naphthalene-2,3′-pyrrolidine]-6-carboxamide] has an IC50 of at most 100 nM.

In the case of `CN(C)c1ccc(N2CC[C@]3(CCc4cc(C(=O)NO)ccc4C3)C2=O)cn1` [Compound I-151, (2R)-1′-[6-(dimethylamino)pyridin-3-yl]-N-hydroxy-2′-oxo-3,4-dihydro-1H-spiro[naphthalene-2,3′-pyrrolidine]-6-carboxamide], the IC50 is reported as at most 100 nM.

Compound `C=C(C)CN1CC[C@]2(CCc3cc(C(=O)NO)ccc3C2)C1=O` [Compound I-47, (R)-N-hydroxy-1′-(2-methylallyl)-2′-oxo-3,4-dihydro-1H-spiro[naphthalene-2,3′-pyrrolidine]-6-carboxamide] has an IC50 of at most 100 nM.

For `COc1cc(N2CC[C@@]3(CCc4cc(C(=O)NO)ccc4C3)C2=O)ccn1` [Compound I-150, (S)-N-hydroxy-1′-(2-methoxypyridin-4-yl)-2′-oxo-3,4-dihydro-1H-spiro[naphthalene-2,3′-pyrrolidine]-6-carboxamide], the IC50 was at most 100 nM.

`CCCN1CC[C@]2(CCc3cc(C(=O)NO)ccc3C2)C1=O` [Compound I-32, (R)-N-hydroxy-2′-oxo-1′-propyl-3,4-dihydro-1H-spiro[naphthalene-2,3′-pyrrolidine]-6-carboxamide] gave an IC50 of at most 100 nM.

With `O=C(NO)c1ccc2c(c1)CC[C@]1(CCN(Cc3ccccc3OC(F)F)C1=O)C2` [Compound I-59, (R)-1′-(2-(difluoromethoxy)benzyl)-N-hydroxy-2′-oxo-3,4-dihydro-1H-spiro[naphthalene-2,3′-pyrrolidine]-6-carboxamide] the IC50 was at most 100 nM.

In the case of `COc1ccc(CN2CCC3(CCc4cc(C(=O)NO)ccc4C3)C2)cc1` (stereo not shown) [Compound I-3, N-hydroxy-1′-(4-methoxybenzyl)-3,4-dihydro-1H-spiro[naphthalene-2,3′-pyrrolidine]-6-carboxamide], the IC50 is reported as 100 to 500 nM.

In the case of `O=C(NO)c1ccc2c(c1)CC[C@@]1(CCN(c3cccnc3)C1=O)C2` [Compound I-11, (S)-N-hydroxy-2′-oxo-1′-(pyridin-3-yl)-3,4-dihydro-1H-spiro[naphthalene-2,3′-pyrrolidine]-6-carboxamide], the IC50 is reported as at most 100 nM.

Compound `O=C(NO)c1ccc2c(c1)CC[C@]1(CCN(Cc3ccccc3Cl)C1=O)C2` [Compound I-40, (R)-1′-(2-chlorobenzyl)-N-hydroxy-2′-oxo-3,4-dihydro-1H-spiro[naphthalene-2,3′-pyrrolidine]-6-carboxamide] has an IC50 of at most 100 nM.

`O=C(NO)c1ccc2c(c1)CCC1(CCN(Cc3ccncc3)C1=O)S2(=O)=O` (stereo not shown) [Compound I-242, N-hydroxy-2-oxo-1-(pyridin-4-ylmethyl)spiro[pyrrolidine-3,2′-thiochromane]-6′-carboxamide 1′,1′-dioxide] gave an IC50 of over 500 nM.

`O=C(NO)c1ccc2c(c1)CCC1(CCCN(CC3COC3)C1=O)C2` (single isomer, unassigned) [Compound I-196] was tested, and the IC50 was at most 100 nM.

`CN(C)c1ccc(N2CC[C@@]3(CCc4cc(C(=O)NO)ccc4C3)C2=O)cn1` [Compound I-152, (2S)-1′-[6-(dimethylamino)pyridin-3-yl]-N-hydroxy-2′-oxo-3,4-dihydro-1H-spiro[naphthalene-2,3′-pyrrolidine]-6-carboxamide] was tested, and the IC50 was 100 to 500 nM.

For `O=C(NO)c1ccc2c(c1)CC[C@]1(CCCN(c3ccccc3)C1=O)C2` (single isomer, unassigned) [Compound I-182], the IC50 was at most 100 nM.

`O=C(NO)c1ccc2c(c1)CC[C@]1(CCN(c3ccncc3)C1=O)C2` [Compound I-16, (R)-N-hydroxy-2′-oxo-1′-(pyridin-4-yl)-3,4-dihydro-1H-spiro[naphthalene-2,3′-pyrrolidine]-6-carboxamide] showed an IC50 of 100 to 500 nM.

Compound `O=C(NO)c1ccc2c(c1)CC[C@@]1(CCN(Cc3cccc(F)c3)C1=O)C2` [Compound I-79, (S)-1′-(3-fluorobenzyl)-N-hydroxy-2′-oxo-3,4-dihydro-1H-spiro[naphthalene-2,3′-pyrrolidine]-6-carboxamide] has an IC50 of at most 100 nM.
